One assay concerns C57BL/6 mice. The assay can be described thus: DSS (sodium dextran sulfate) model for intestinal inflammation: colon length, weight, DAI, appearance, colonic architecture. The assay is classed as in vivo. The settings on record: for Conservation of colon length (shortening of the colon): 1% DSS for 8 days, diet supplemented with 2.3 mg/day/kg (HED 10 mg); for DAI (Disease Activity Index): 8 days with DSS and 6 days recovery; for DAI (Disease Activity Index) / General appearance of the mice / Weight change / Attenuation of damage in colonic mucosa (colonic architecture): HED 10 mg; for Rectal hemorrhage / General appearance of the mice: after 1% DSS for 8 days; for Weight change: after administration of DSS (day 21); for Attenuation of damage in colonic mucosa (colonic architecture): hematoxylin-eosin, during treatment with DSS. As to the method: (§1) A model for intestinal inflammation based on the administration of DSS (sodium dextran sulfate) to C57BL/6 mice was used. At the present time there is no consensus about which overall is the best model for experimental colitis. The DSS model has been widely used because it has clinical, morphological and analytical characteristics which up to a point are similar to those specific to patients with ulcerative colitis or Crohn's disease.
(§2) The in vivo inflammation test was carried out using duplicates separated by a number of months. In each test each group of animals (n=8) was fed a standard diet supplemented with 2.3 mg/day/kg (animal weight) of each of the compounds, depending upon the group. This dose assumes the ingestion of 0.05 mg/day (50 μg/day) per mouse (having a mean weight of 22 grams). This dose extrapolated to a human being is equivalent to 10 mg in an adult weighing 70 kg; using the formula HED (human equivalent dose)=animal dose in mg/kg×(animal weight kg/human weight in kg)^0.33.
(§3) In each test the mice were fed for 3 weeks during which 1% DSS was included in their drink. The DSS was maintained for 8 days (and the same food as from the start). Then the DSS was withdrawn and the animals were allowed to recover for another 6 days (again with the same food).
Groups included in the investigation: control (standard food), control-DSS, DSS-resveratrol (RES), DSS-piceid (PIC), DSS-resveratrol-diglucoside (DIGLUC), DSS-piceid-butyrate (BUT), DSS-piceid-octanoate (OCT).
• Monitoring of weight, food and drink ingestion. The mice in all groups were individually monitored, with weight, quantity of food ingested and water drunk each day being monitored throughout the experimental test. • Blood and water in feces. The water content of feces, as an indication of diarrhea, was evaluated using the difference in weight following evaporation in a stove. Blood was measured using reactive strips based on the guaiacol-peroxidase reaction (HealthCare Diagnosis Inc.). The samples were diluted 1:50 in saline solution and applied to the reactive strips. After 60 sec the color was compared with the template provided by the manufacturer. The reaction was measured using a scale from 0 (negative result) to 4 (most intense color change). • Length of colon. After sacrifice the colon was obtained from each mouse, extended and measured. Samples of the colonic mucosa for various tests mentioned below were obtained by scraping. • Myeloperoxidase activity in colonic mucosa. This was evaluated by spectrophotometry at 460 nm using O-dianisidine reagent and hydrogen peroxide. The change in absorbance at 460 nm was monitored over 10 minutes in a V-630 spectrophotometer (Jasco, Tokyo, Japan). MPO activity was expressed as mU of activity/mg of fresh tissue, comparing the increase in absorbance with a standard straight line obtained using leukocyte myeloperoxidase (Sigma). • Prostaglandins in colonic mucosa. Levels of PGE2 were measured in colonic mucosa homogenates using an immunoenzyme method using a Cayman Chem. kit (USA). • “Antibody array”. The “antibody array” kit from RayBiotech (“RayBio Mouse Inflammation Antibody Array 1”) was used to determine cytokines in colonic tissue samples. The “RayBio Mouse inflammation antibody arrays” are a fast and accurate system for determining the expression profile of multiple cytokines (in this case 40) in a very sensitive way. The sensitivity is 100 times greater than that of the ELISA method. The measurement was made in duplicate following the manufacturer's instructions. Membranes were blocked with blocking buffer and then incubated with 300 μg of protein for 2 hours. Finally the membranes were incubated with a cocktail of antibodies conjugated with biotin and then radish peroxidase marked with streptavidin. The signal was detected by chemoluminescence. Images were captured using a CCD camera fitted to a Biorad Chemidoc XRS imaging station. Signal intensities (densitometry) were analyzed using ScanAlyze software. […]

Assay [1] has as its system TNFR1 (Tumor necrosis factor receptor, CD120a). The assay can be described thus: Antibody array in colonic mucosa: TNFR1 (DSS model). The assay is classed as in vivo, mice. The conditions noted are these: after 8 days DSS, without recovery period; HED 10 mg. As for the experimental part:
as §1
(§4) The in vivo inflammation test was carried out using duplicates separated by a number of months. In each test each group of animals (n=8) was fed a standard diet supplemented with 2.3 mg/day/kg (animal weight) of each of the compounds, depending upon the group. […]
(§5) • Monitoring of weight, food and drink ingestion. The mice in all groups were individually monitored, with weight, quantity of food ingested and water drunk each day being monitored throughout the experimental test. • Blood and water in feces. The water content of feces, as an indication of diarrhea, was evaluated using the difference in weight following evaporation in a stove. Blood was measured using reactive strips based on the guaiacol-peroxidase reaction (HealthCare Diagnosis Inc.). […] The reaction was measured using a scale from 0 (negative result) to 4 (most intense color change). • Length of colon. After sacrifice the colon was obtained from each mouse, extended and measured. […]

Another assay has as its system bifidobacteria. The assay can be described thus: Microbiota counts in feces: bifidobacteria. The assay is classed as in vivo, mice. The conditions noted are these: after administration of DSS; HED 10 mg. As for the experimental part: as §1, §2, §3
• Monitoring of weight, food and drink ingestion. The mice in all groups were individually monitored, with weight, quantity of food ingested and water drunk each day being monitored throughout the experimental test. • Blood and water in feces. The water content of feces, as an indication of diarrhea, was evaluated using the difference in weight following evaporation in a stove. Blood was measured using reactive strips based on the guaiacol-peroxidase reaction (HealthCare Diagnosis Inc.). […] The reaction was measured using a scale from 0 (negative result) to 4 (most intense color change). • Length of colon. After sacrifice the colon was obtained from each mouse, extended and measured. […] This was evaluated by spectrophotometry at 460 nm using O-dianisidine reagent and hydrogen peroxide. The change in absorbance at 460 nm was monitored over 10 minutes in a V-630 spectrophotometer (Jasco, Tokyo, Japan). MPO activity was expressed as mU of activity/mg of fresh tissue, comparing the increase in absorbance with a standard straight line obtained using leukocyte myeloperoxidase (Sigma). • Prostaglandins in colonic mucosa. Levels of PGE2 were measured in colonic mucosa homogenates using an immunoenzyme method using a Cayman Chem. kit (USA). • “Antibody array”. […] The signal was detected by chemoluminescence. […] Signal intensities (densitometry) were analyzed using ScanAlyze software. […] The changes in cytokine levels were expressed as mean±SD in arbitrary density units. […]

The subject of a further assay is lactobacilli. The assay can be described thus: Microbiota counts in feces: lactobacilli. Format: in vivo, mice. The conditions noted are these: pre-treatment, maintained after DSS; HED 10 mg. As for the experimental part: as §1, §4, §5
For the next assay, the system named is enterobacteria. The assay can be described thus: Microbiota counts in feces: enterobacteria. The assay is classed as in vivo, mice. The settings on record: after administration of DSS; HED 10 mg. As for the experimental part: as §1
The in vivo inflammation test was carried out using duplicates separated by a number of months. In each test each group of animals (n=8) was fed a standard diet supplemented with 2.3 mg/day/kg (animal weight) of each of the compounds, depending upon the group. This dose assumes the ingestion of 0.05 mg/day (50 μg/day) per mouse (having a mean weight of 22 grams). This dose extrapolated to a human being is equivalent to 10 mg in an adult weighing 70 kg; using the formula HED (human equivalent dose)=animal dose in mg/kg×(animal weight kg/human weight in kg)^0.33. […]
• Monitoring of weight, food and drink ingestion. The mice in all groups were individually monitored, with weight, quantity of food ingested and water drunk each day being monitored throughout the experimental test. • Blood and water in feces. The water content of feces, as an indication of diarrhea, was evaluated using the difference in weight following evaporation in a stove. Blood was measured using reactive strips based on the guaiacol-peroxidase reaction (HealthCare Diagnosis Inc.). […] The reaction was measured using a scale from 0 (negative result) to 4 (most intense color change). • Length of colon. After sacrifice the colon was obtained from each mouse, extended and measured. […] This was evaluated by spectrophotometry at 460 nm using O-dianisidine reagent and hydrogen peroxide. The change in absorbance at 460 nm was monitored over 10 minutes in a V-630 spectrophotometer (Jasco, Tokyo, Japan). […] Levels of PGE2 were measured in colonic mucosa homogenates using an immunoenzyme method using a Cayman Chem. kit (USA). • “Antibody array”. […] The signal was detected by chemoluminescence. […]

Here are results for two compounds from patent US20120309699A1, “COMPOUNDS HAVING ANTI-INFLAMMATORY ACTIVITY” (Consejo Superior de Investigaciones Cientificas (CSIC), priority 2009, published 2012).

“Also recorded” adds a separate entry of the source.

Consider `CCCCCCCC(=O)OCC1OC(Oc2cc(O)cc(/C=C/c3ccc(O)cc3)c2)C(O)C(O)C1O` [OCT, trans-resveratrol-3-O-(6′-O-octanoyl)-β-D-glucopyranoside], for which, in the assay with C57BL/6 mice, the “Conservation of colon length (shortening of the colon)” value is given as “least shortening of the colon”, the “DAI (Disease Activity Index)” value was “much less than in the remainder”, the Rectal hemorrhage result is reported as “no trace of rectal hemorrhage” and the “General appearance of the mice” value is “OCT (D)≈BUT (C)>>RES≈DIGLUC≈PIC (B)>>control-DSS (A); also recorded: better appearance than the control-DSS”. Moreover, in the assay with C57BL/6 mice, the Weight change result is on record as “maintained the same weight as the control group” and the “Attenuation of damage in colonic mucosa (colonic architecture)” value is on record as “best preserved colonic architecture”. In addition, the “Level of TNFR1 in colonic mucosa” value in assay [1] is reported as “values are similar to those for the control mice”. In addition, the “Bifidobacteria count in feces” value in the assay with bifidobacteria is “continued the upward trend”. In addition, the “Population of lactobacilli in feces” value with lactobacilli is on record as “increases the population”. Moreover, in the assay with enterobacteria, the “Enterobacteria count in feces” value is “clear reduction”.

For the compound `CCCC(=O)OCC1OC(Oc2cc(O)cc(/C=C/c3ccc(O)cc3)c2)C(O)C(O)C1O` [BUT, trans-resveratrol-3-O-(6′-O-butanoyl)-β-D-glucopyranoside], in the assay on C57BL/6 mice, the “Conservation of colon length (shortening of the colon)” value is “least shortening of the colon”, the “DAI (Disease Activity Index)” value is reported as “much less than in the remainder”, the Rectal hemorrhage entry was “no trace of rectal hemorrhage” and the “General appearance of the mice” value is listed as “OCT (D)≈BUT (C)>>RES≈DIGLUC≈PIC (B)>>control-DSS (A); also recorded: better appearance than the control-DSS”. Besides, in the assay with C57BL/6 mice, the Weight change entry is on record as “maintained the same weight as the control group” and the “Attenuation of damage in colonic mucosa (colonic architecture)” value is “best preserved colonic architecture”. For the same compound, in assay [1], the “Level of TNFR1 in colonic mucosa” value is “values are similar to those for the control mice”. Also, in the assay with bifidobacteria, the “Bifidobacteria count in feces” value is listed as “continued the upward trend”. Further, the “Population of lactobacilli in feces” value in the assay with lactobacilli is reported as “increases the population”. For the same compound, the “Enterobacteria count in feces” value with enterobacteria is given as “clear reduction”.
